# Measurements as given in ChEMBL document CHEMBL6109086, “Discovery and biological evaluation of hederagenin derivatives as non-substrate inhibitors of P-glycoprotein-mediated multidrug resistance” (Eur J Med Chem, 2025).
# Activity calls are given as the source filed them. The calls are words filed in the database; no cut-off is given here.
# How the values were obtained:
# [1] = Reversal of multi-drug resistance in human KBV cells assessed as paclitaxel induced cytotoxicity by measuring cell survival at 10 uM measured after 72 hrs by MTT assay relative to control; type: functional
# [2] = Cytotoxicity against human KBV cells assessed as paclitaxel induced cytotoxicity by measuring cell survival at 10 uM measured after 72 hrs by MTT assay relative to control; type: functional
# [3] = Sensitization of paclitaxel-induced cytotoxicity against human KBV cells assessed as fold change in paclitaxel IC50 at 2.5 uM incubated for 72 hrs by MTT assay relative to paclitaxel alone; type: functional
# [4] = Sensitization of paclitaxel-induced cytotoxicity against human KBV cells assessed as fold change in paclitaxel IC50 at 5 uM incubated for 72 hrs by MTT assay relative to paclitaxel alone; type: functional
# [5] = Sensitization of paclitaxel-induced cytotoxicity against human KBV cells assessed as fold change in paclitaxel IC50 at 10 uM incubated for 72 hrs by MTT assay relative to paclitaxel alone; type: functional
# [6] = Sensitization of vincristine -induced cytotoxicity against human KBV cells assessed as fold change in vincristine IC50 at 2.5 uM incubated for 72 hrs by MTT assay relative to vincristine alone; type: functional
# [7] = Sensitization of vincristine -induced cytotoxicity against human KBV cells assessed as fold change in vincristine IC50 at 5 uM incubated for 72 hrs by MTT assay relative to vincristine alone; type: functional
# [8] = Sensitization of vincristine -induced cytotoxicity against human KBV cells assessed as fold change in vincristine IC50 at 10 uM incubated for 72 hrs by MTT assay relative to vincristine alone; type: functional
# [9] = Aqueous solubility of the compound in deionized water measured after 24 hrs by UV-vis spectrophotometric analysis; type: physicochemical; details: buffer
# [10] = Cytotoxicity against human KBV cells incubated for 72 hrs by MTT assay; type: functional, cell-based
# [11] = tested on: KBV; assay: Anti-tumor activity against human KBV cells xenografted in male BALB/c nude mouse assessed as reduction in tumor volume at 30 mg/kg administered every days for 18 days; type: functional, organism-based; details: time 18.0 day
Structure (SMILES),Activity [1],Activity [2],further results
C[C@H](N)C(=O)N[C@@H](C)C(=O)NCCNC(=O)[C@]12CCC(C)(C)C[C@H]1C1=CC[C@@H]3[C@@]4(C)Cc5nccnc5[C@@](C)(CO)[C@@H]4CC[C@@]3(C)[C@]1(C)CC2,28.53%,92.74%,
CC1(C)CC[C@]2(C(=O)NCC(=O)OCCOCCO)CC[C@]3(C)C(=CC[C@@H]4[C@@]5(C)Cc6nccnc6[C@@](C)(CO)[C@@H]5CC[C@]43C)[C@@H]2C1,84.84%,94.99%,
CC1(C)CC[C@]2(C(=O)NCC(=O)OCCOCCOCCOCCOCCOCCOCCOCCOCCO)CC[C@]3(C)C(=CC[C@@H]4[C@@]5(C)Cc6nccnc6[C@@](C)(CO)[C@@H]5CC[C@]43C)[C@@H]2C1,74.02%,79.04%,
CC1(C)CC[C@]2(C(=O)NCC(=O)OCCOCCOCCO)CC[C@]3(C)C(=CC[C@@H]4[C@@]5(C)Cc6nccnc6[C@@](C)(CO)[C@@H]5CC[C@]43C)[C@@H]2C1,67.88%,86.82%,
CC(C)[C@H](N)C(=O)N[C@H](C(=O)NCCNC(=O)[C@]12CCC(C)(C)C[C@H]1C1=CC[C@@H]3[C@@]4(C)Cc5nccnc5[C@@](C)(CO)[C@@H]4CC[C@@]3(C)[C@]1(C)CC2)C(C)C,89.43%,87.47%,
CC1(C)CC[C@]2(C(=O)NCCCC(=O)OCCOCCOCCO)CC[C@]3(C)C(=CC[C@@H]4[C@@]5(C)Cc6nccnc6[C@@](C)(CO)[C@@H]5CC[C@]43C)[C@@H]2C1,63.88%,96.02%,
O[C@@H](COc1cccc2ncccc12)CN1CCN([C@@H]2c3ccccc3[C@@H]3[C@H](c4ccccc42)C3(F)F)CC1 [ZOSUQUIDAR],,,fold change (FC) [3]: 45.38; fold change (FC) [4]: 133.98; fold change (FC) [5]: 449.19; fold change (FC) [6]: 9.01; fold change (FC) [7]: 33.85; fold change (FC) [8]: 721.86
COC(=O)C[C@H](NC(=O)COC(=O)[C@]12CCC(C)(C)C[C@H]1C1=CC[C@@H]3[C@@]4(C)Cc5nccnc5[C@@](C)(CO)[C@@H]4CC[C@@]3(C)[C@]1(C)CC2)C(=O)OC,35.97%,79.2%,
CC1(C)CC[C@]2(C(=O)OCC(=O)NCc3ncccn3)CC[C@]3(C)C(=CC[C@@H]4[C@@]5(C)Cc6nccnc6[C@@](C)(CO)[C@@H]5CC[C@]43C)[C@@H]2C1,39.38%,90.35%,
CC1(C)CC[C@]2(C(=O)OCC(=O)OCc3ncco3)CC[C@]3(C)C(=CC[C@@H]4[C@@]5(C)Cc6nccnc6[C@@](C)(CO)[C@@H]5CC[C@]43C)[C@@H]2C1,26.03%,62.38%,
CC1(C)CC[C@]2(C(=O)OCc3ccccc3)CC[C@]3(C)C(=CC[C@@H]4[C@@]5(C)Cc6nccnc6[C@@](C)(CO)[C@@H]5CC[C@]43C)[C@@H]2C1,18.17%,,solubility [9]: soluble
COC(=O)CC[C@H](NC(=O)COC(=O)[C@]12CCC(C)(C)C[C@H]1C1=CC[C@@H]3[C@@]4(C)Cc5nccnc5[C@@](C)(CO)[C@@H]4CC[C@@]3(C)[C@]1(C)CC2)C(=O)OC,40.07%,92.53%,
COC(=O)[C@H](Cc1ccccc1)NC(=O)COC(=O)[C@]12CCC(C)(C)C[C@H]1C1=CC[C@@H]3[C@@]4(C)Cc5nccnc5[C@@](C)(CO)[C@@H]4CC[C@@]3(C)[C@]1(C)CC2,38.69%,90.77%,
CC(C)C[C@H](N)C(=O)NCC(=O)NCCNC(=O)[C@]12CCC(C)(C)C[C@H]1C1=CC[C@@H]3[C@@]4(C)Cc5nccnc5[C@@](C)(CO)[C@@H]4CC[C@@]3(C)[C@]1(C)CC2,96.68%,98.91%,
CC1(C)CC[C@]2(C(=O)OCC(=O)OCc3cnccn3)CC[C@]3(C)C(=CC[C@@H]4[C@@]5(C)Cc6nccnc6[C@@](C)(CO)[C@@H]5CC[C@]43C)[C@@H]2C1,53.78%,121.45%,
CC1(C)CC[C@]2(C(=O)NCCCC(=O)OCCOCCOCCOCCOCCO)CC[C@]3(C)C(=CC[C@@H]4[C@@]5(C)Cc6nccnc6[C@@](C)(CO)[C@@H]5CC[C@]43C)[C@@H]2C1,27.02%,94.86%,
CC1(C)CC[C@]2(C(=O)NCCCC(=O)OCCOCCOCCOCCO)CC[C@]3(C)C(=CC[C@@H]4[C@@]5(C)Cc6nccnc6[C@@](C)(CO)[C@@H]5CC[C@]43C)[C@@H]2C1,28.96%,93.67%,

Structure (SMILES),Activity [1],Activity [2],further results
CC1(C)CC[C@]2(C(=O)OCC(=O)NCc3ccccn3)CC[C@]3(C)C(=CC[C@@H]4[C@@]5(C)Cc6nccnc6[C@@](C)(CO)[C@@H]5CC[C@]43C)[C@@H]2C1,33.22%,82.98%,
CC1(C)CC[C@]2(C(=O)NCC(=O)OCCOCCOCCOCCO)CC[C@]3(C)C(=CC[C@@H]4[C@@]5(C)Cc6nccnc6[C@@](C)(CO)[C@@H]5CC[C@]43C)[C@@H]2C1,83.46%,90.96%,
CC[C@]1(O)C[C@H]2CN(CCc3c([nH]c4ccccc34)[C@@](C(=O)OC)(c3cc4c(cc3OC)N(C=O)[C@H]3[C@@](O)(C(=O)OC)[C@H](OC(C)=O)[C@]5(CC)C=CCN6CC[C@]43[C@@H]65)C2)C1 [VINCRISTINE],,,IC50 [10]: 469 nM
CC1(C)CC[C@]2(C(=O)OCC(=O)OCc3nccs3)CC[C@]3(C)C(=CC[C@@H]4[C@@]5(C)Cc6nccnc6[C@@](C)(CO)[C@@H]5CC[C@]43C)[C@@H]2C1,43.84%,105.92%,
COc1cc2c(cc1OC)CN(CCc1ccc(NC(=O)c3cc(OC)c(OC)cc3NC(=O)c3cnc4ccccc4c3)cc1)CC2,,,fold change (FC) [3]: 391.47; fold change (FC) [4]: 824.4; fold change (FC) [5]: 1523.35; fold change (FC) [6]: 16.78; fold change (FC) [7]: 30.99; fold change (FC) [8]: 744.78
CC1(C)CC[C@]2(C(=O)OCC(=O)OCC3CCO3)CC[C@]3(C)C(=CC[C@@H]4[C@@]5(C)Cc6nccnc6[C@@](C)(CO)[C@@H]5CC[C@]43C)[C@@H]2C1 (stereo partly specified),48.06%,106.82%,
CC1(C)CC[C@]2(C(=O)NCCCC(=O)OCCOCCO)CC[C@]3(C)C(=CC[C@@H]4[C@@]5(C)Cc6nccnc6[C@@](C)(CO)[C@@H]5CC[C@]43C)[C@@H]2C1,70.13%,91.43%,
CC1(C)CC[C@]2(C(=O)OCC(=O)OCc3ccncc3)CC[C@]3(C)C(=CC[C@@H]4[C@@]5(C)Cc6nccnc6[C@@](C)(CO)[C@@H]5CC[C@]43C)[C@@H]2C1,46.31%,109.15%,
CC1(C)CC[C@]2(C(=O)OCC(=O)NCC3CCOCC3)CC[C@]3(C)C(=CC[C@@H]4[C@@]5(C)Cc6nccnc6[C@@](C)(CO)[C@@H]5CC[C@]43C)[C@@H]2C1,30.34%,78.91%,
COC(=O)[C@H](CC(C)C)NC(=O)COC(=O)[C@]12CCC(C)(C)C[C@H]1C1=CC[C@@H]3[C@@]4(C)Cc5nccnc5[C@@](C)(CO)[C@@H]4CC[C@@]3(C)[C@]1(C)CC2,38.41%,85.1%,
COC(=O)[C@H](CCSC)NC(=O)COC(=O)[C@]12CCC(C)(C)C[C@H]1C1=CC[C@@H]3[C@@]4(C)Cc5nccnc5[C@@](C)(CO)[C@@H]4CC[C@@]3(C)[C@]1(C)CC2,37.17%,79.95%,
CC1(C)CC[C@]2(C(=O)NCC(=O)OCCOCCOCCOCCOCCO)CC[C@]3(C)C(=CC[C@@H]4[C@@]5(C)Cc6nccnc6[C@@](C)(CO)[C@@H]5CC[C@]43C)[C@@H]2C1,78.98%,77.18%,
CC1(C)CC[C@]2(C(=O)OCC(=O)NCc3cnccn3)CC[C@]3(C)C(=CC[C@@H]4[C@@]5(C)Cc6nccnc6[C@@](C)(CO)[C@@H]5CC[C@]43C)[C@@H]2C1,40.44%,97.94%,
CC(C)[C@H](N)C(=O)NCC(=O)NCCNC(=O)[C@]12CCC(C)(C)C[C@H]1C1=CC[C@@H]3[C@@]4(C)Cc5nccnc5[C@@](C)(CO)[C@@H]4CC[C@@]3(C)[C@]1(C)CC2,27.74%,97.4%,
CC1(C)CC[C@]2(C(=O)NCCNC(=O)CNC(=O)CN)CC[C@]3(C)C(=CC[C@@H]4[C@@]5(C)Cc6nccnc6[C@@](C)(CO)[C@@H]5CC[C@]43C)[C@@H]2C1,87.67%,91.41%,
CC1(C)CC[C@]2(C(=O)OCC(=O)NCc3cccs3)CC[C@]3(C)C(=CC[C@@H]4[C@@]5(C)Cc6nccnc6[C@@](C)(CO)[C@@H]5CC[C@]43C)[C@@H]2C1,25.86%,54.97%,
CC(=O)O[C@H]1C(=O)[C@@]2(C)[C@H]([C@H](OC(=O)c3ccccc3)[C@]3(O)C[C@H](OC(=O)[C@H](O)[C@@H](NC(=O)c4ccccc4)c4ccccc4)C(C)=C1C3(C)C)[C@]1(OC(C)=O)CO[C@@H]1C[C@@H]2O [PACLITAXEL],,106%,IC50 [10]: 701 nM; Activity [11]: inactive
